# Results as given in article PMC12670164, “In vitro and clinical data demonstrate negligible risk of drug–drug interactions with opelconazole, a novel inhaled antifungal agent” (Journal of Antimicrobial Chemotherapy, 2025).
# Experiments:
# CYP3A4 = CYP3A4 (Homo sapiens, UniProt P08684); experiment: clinical
# Procedure: The study documents were approved by an Independent Ethics Committee. Study participants provided written informed consent prior to any study procedures.
# Screening occurred within 28 days prior to the first dosing day (Figure 1). […] On Days 1 and 15, participants received oral midazolam 7.5 mg and oral caffeine 180 mg together after food ingestion.
# Morning doses of opelconazole on Day 2 and Day 15 were taken 30 min after food ingestion.
# Primary PK parameters assessed for midazolam and its metabolites (1-OH-midazolam, 4-OH-midazolam), caffeine and opelconazole were Cmax and AUC, from time zero to t, where t is the time of the last quantifiable concentration (AUC(0−t); i.e., AUC(0−12) and AUC(0−24)). Secondary PK parameters were AUC(0−∞), Tmax, apparent t1/2 and accumulation ratio (RO) of opelconazole only.
# For caffeine, midazolam and the metabolites of midazolam, the geometric mean ratio (GMR) of Day 15 estimates to those obtained on Day 1 was derived by fitting a linear mixed effect model with the log of the parameter as the response, visit as the fixed effect, and participant as the random effect.
# CYP1A2 [1] = experiment: clinical; conditions: both, human, plasma, po, 180 mg, probe caffeine
# Excerpt: To adjust for any residual caffeine in plasma samples, the estimated contribution of residual, pre-dose caffeine was subtracted from the measured caffeine concentration to produce an ‘adjusted concentration.’ Residual caffeine concentrations were estimated from the baseline concentration and the measured elimination rate in individual participants.
# CYP1A2 [2] = experiment: CYP induction, mRNA endpoint, cryopreserved human hepatocytes; conditions: human, 72 h
# Procedure: The potential for opelconazole to act as an inducer of CYP isoforms CYP1A2, CYP2B6 and CYP3A4 was assessed in vitro using an mRNA endpoint across three donors in cryopreserved human hepatocytes. A drug is interpreted as an inducer if: (1) it increases mRNA expression of a CYP enzyme in a concentration-dependent manner and (2) the fold change of CYP mRNA expression relative to vehicle control is ≥2-fold at the drug’s expected hepatic concentrations.[23]
# A cytotoxicity assessment using MTT was performed in one of the three donors used for the induction studies prior to dosing.
# [3] = Day 1, oral midazolam 7.5 mg without opelconazole
# [4] = Day 15, oral midazolam 7.5 mg after 14 days inhaled opelconazole 14.8 mg twice daily
# [5] = both, human, in vivo, po, 7.5 mg
# Sequence of CYP3A4 (P08684 whole entry): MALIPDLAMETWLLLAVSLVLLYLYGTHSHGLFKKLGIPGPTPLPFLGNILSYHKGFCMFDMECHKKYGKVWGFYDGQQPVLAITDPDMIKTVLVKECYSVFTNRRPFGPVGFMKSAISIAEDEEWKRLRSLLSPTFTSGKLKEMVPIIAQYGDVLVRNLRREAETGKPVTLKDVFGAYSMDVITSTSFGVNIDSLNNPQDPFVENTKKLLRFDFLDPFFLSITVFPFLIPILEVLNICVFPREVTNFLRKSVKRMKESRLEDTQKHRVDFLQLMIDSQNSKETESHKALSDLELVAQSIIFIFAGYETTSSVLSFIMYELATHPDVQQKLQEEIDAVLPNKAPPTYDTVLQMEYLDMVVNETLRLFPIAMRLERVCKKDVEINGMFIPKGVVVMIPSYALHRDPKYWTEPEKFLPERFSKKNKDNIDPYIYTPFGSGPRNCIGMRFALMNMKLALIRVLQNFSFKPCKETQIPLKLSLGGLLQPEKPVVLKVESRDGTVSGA
SMILES,"AUC(0–24h), geometric mean (CYP3A4; [3])","Cmax, geometric mean (CYP3A4; [3])","AUC(0–24h), geometric mean (CYP3A4; [4])","Cmax, geometric mean (CYP3A4; [4])",also measured
"OCc1ncc2n1-c1ccc(Cl)cc1C(c1ccccc1F)=NC2 [1-OH-Midazolam, 1-OH-midazolam]",72.8 ng·h/mL,16.7 ng/mL,60.9 ng·h/mL,13.4 ng/mL,–
"Cc1ncc2n1-c1ccc(Cl)cc1C(c1ccccc1F)=NC2O (stereo not shown) [4-OH-Midazolam, 4-OH-midazolam]",8.92 ng·h/mL,1.97 ng/mL,8.70 ng·h/mL,1.78 ng/mL,–
"Cn1c(=O)c2c(ncn2C)n(C)c1=O [Caffeine, caffeine]",–,–,–,–,AUC(0-t) (CYP1A2 [1]): 33200 ng·h/mL; Cmax (CYP1A2 [1]): 3280 ng/mL
"Cc1ncc2n1-c1ccc(Cl)cc1C(c1ccccc1F)=NC2 [Midazolam, midazolam, reference compound]",–,–,–,–,AUC(0-t) (CYP3A4; [5]): 166 ng·h/mL; Cmax (CYP3A4; [5]): 35.1 ng/mL
"COc1ccc2[nH]c([S+]([O-])Cc3ncc(C)c(OC)c3C)nc2c1 (stereo not shown) [omeprazole, reference compound]",–,–,–,–,induction outcome of positive control relative to opelconazole (CYP1A2 [2]): > 30 fold
